Our source for the EC50 values is patent publication US9133115B2 (ACHILLION PHARMACEUTICALS, INC., priority 2008, dated 2015).

pEC50: −log10 of the molar value.

This test relates to HCV replicon. In words: HCV replicon replication assay (NPT ELISA) in Huh-7 replicon-containing cells. The test is classed as cell-based. The conditions noted are these: Hepatitis C virus, 72 h; HCV replicon in Huh-7 cells, three days incubation; read-out: EC50. The gist of the method: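 Huh-7 cells carrying a bicistronic HCV replicon (HCV-IRES-neo, EMCV-IRES-driven NS3–NS5B, 3′-NTR) were seeded at 6000-7500 cells/well, grown 24 h to 60-70% confluence, then treated with graded compound concentrations. Replication was read as NPT level by capture ELISA (rabbit anti-NPTII, Eu-N1 secondary); interferon alpha served as positive control.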
For orientation: pEC50 means the negative decadic logarithm of the EC50, by convention in mol/L. For `C=C[C@@H]1C[C@]1(NC(=O)[C@@H]1C[C@@H](NC(=O)n2c3ccccc3c3ccccc32)CN1C(=O)[C@@H](CC(=O)N1CCCC(F)C1)C(C)(C)C)C(=O)NS(=O)(=O)C1CC1` (stereo partly drawn) [Compound 188, N-((3R,5S)-1-((2S)-2-tert-butyl-4-(3-fluoropiperidin-1-yl)-4-oxobutanoyl)-5-((1R,2S)-1-(cyclopropylsulfonyl-carbamoyl)-2-vinyl-cyclopropyl-carbamoyl)pyrrolidin-3-yl)-9H-carbazole-9-carboxamide], the pEC50 is more than 6.00.

On to `C=C[C@@H]1C[C@]1(NC(=O)[C@@H]1C[C@@H](NC(=O)n2c3ccccc3c3ccccc32)CN1C(=O)[C@@H](CC(=O)N1CCC(F)CC1)C(C)(C)C)C(=O)NS(=O)(=O)C1CC1` [Compound 189, N-((3R,5S)-1-((S)-2-tert-butyl-4-(4-fluoropiperidin-1-yl)-4-oxobutanoyl)-5-((1R,2S)-1-(cyclo-propylsulfonyl-carbamoyl)-2-vinylcyclopropyl-carbamoyl)pyrrolidin-3-yl)-9H-carbazole-9-carboxamide], for which the pEC50 is more than 6.00.

Regarding `C=C[C@@H]1C[C@]1(NC(=O)[C@@H]1C[C@@H](NC(=O)n2c3ccccc3c3ccccc32)CN1C(=O)[C@@H](CC(=O)N1CCC(C(F)(F)F)CC1)C(C)(C)C)C(=O)NS(=O)(=O)C1CC1` [Compound 190, N-((3R,5S)-1-((S)-2-tert-butyl-4-oxo-4-(4-(trifluoromethyl)piper-idin-1-yl)butanoyl)-5-((1R,2S)-1-(cyclopropylsulfonyl-carbamoyl)-2-vinylcyclopropyl-carbamoyl)pyrrolidin-3-yl)-9H-carbazole-9-carboxamide], the pEC50 was more than 6.00.

For `C=C[C@@H]1C[C@]1(NC(=O)[C@@H]1C[C@@H](N(Cc2ccccn2)C(=O)n2c3ccccc3c3ccccc32)CN1C(=O)[C@@H](CC(=O)N1CCCCC1)C(C)(C)C)C(=O)NS(=O)(=O)C1CC1` [Compound 191, N-((3R,5S)-1-((S)-2-tert-butyl-4-oxo-4-(piperidin-1-yl)butanoyl)-5-((1R)-1-(cyclopropylsulfonyl-carbamoyl)-2-vinyl-cyclopropyl-carbamoyl)pyrrolidin-3-yl)-N-(pyridin-2-ylmethyl)-9H-carbazole-9-carboxamide], the negative logarithm of the EC50 (pEC50) was more than 6.00.

Consider `C=C[C@@H]1C[C@]1(NC(=O)[C@@H]1C[C@@H](N(Cc2ccccn2)C(=O)n2c3ccccc3c3ccccc32)CN1C(=O)[C@@H](CC(=O)N1CCCC(F)(F)C1)C(C)(C)C)C(=O)NS(=O)(=O)C1CC1` [Compound 192, N-((3R,5S)-1-((S)-2-tert-butyl-4-(3,3-difluoropiperidin-1-yl)-4-oxobutanoyl)-5-((1R)-1-(cyclopropylsulfonyl-carbamoyl)-2-vinylcyclopropyl-carbamoyl)pyrrolidin-3-yl)-N-(pyridin-2-ylmethyl)-9H-carbazole-9-carboxamide], for which the pEC50 is more than 6.00.

`C=C[C@@H]1C[C@]1(NC(=O)[C@@H]1C[C@@H](N(Cc2ccccn2)C(=O)n2c3ccccc3c3ccccc32)CN1C(=O)[C@@H](CC(=O)N1CCC(F)(F)C1)C(C)(C)C)C(=O)NS(=O)(=O)C1CC1` [Compound 193, N-((3R,5S)-1-((S)-2-tert-butyl-4-(3,3-difluoropyrrolidin-1-yl)-4-oxobutanoyl)-5-((1R)-1-(cyclopropylsulfonyl-carbamoyl)-2-vinylcyclopropyl-carbamoyl)pyrrolidin-3-yl)-N-(pyridin-2-ylmethyl)-9H-carbazole-9-carboxamide]: the pEC50 was more than 6.00.

In the case of `C=C[C@@H]1C[C@]1(NC(=O)[C@@H]1C[C@@H](Oc2cc(-c3ccccn3)nc3c(Cl)c(OC)ccc23)CN1C(=O)[C@@H](CC(=O)N1CCC(F)(F)CC1)C(C)(C)C)C(=O)NS(=O)(=O)C1CC1` [Compound 194, (2S,4R)-1-((S)-2-tert-butyl-4-(4,4-difluoropiperidin-1-yl)-4-oxobutanoyl)-4-(8-chloro-7-methoxy-2-(pyridin-2-yl)quinolin-4-yloxy)-N-((1R)-1-(cyclopropyl-sulfonylcarbamoyl)-2-vinyl-cyclopropyl)pyr-rolidine-2-carboxamide], the negative-log EC50 (pEC50) was more than 6.00.

Regarding `C=C[C@@H]1C[C@]1(NC(=O)[C@@H]1C[C@@H](Oc2cc(-c3ccccc3)nc3cc(OC)ccc23)CN1C(=O)[C@@H](CC(=O)N1CCN(S(=O)(=O)CC)CC1)C(C)(C)C)C(=O)NS(=O)(=O)C1CC1` [Compound 195, (2S,4R)-1-((S)-2-tert-butyl-4-(4-(ethylsulfonyl)piper-azin-1-yl)-4-oxobutanoyl)-N-((1R)-1-(cyclopropylsulfonyl-carbamoyl)-2-vinylcyclopropyl)-4-(7-methoxy-2-phenylquinolin-4-yloxy)pyrrolidine-2-carboxamide], the pEC50 was more than 6.00.

Consider `C=C[C@@H]1C[C@]1(NC(=O)[C@@H]1C[C@@H](Oc2cc(-c3ccccc3)nc3cc(OC)ccc23)CN1C(=O)[C@@H](CC(=O)N1CCN(c2cnccn2)CC1)C(C)(C)C)C(=O)NS(=O)(=O)C1CC1` [Compound 196, (2S,4R)-1-((S)-2-tert-butyl-4-oxo-4-(4-(pyrazin-2-yl)piperazin-1-yl)butanoyl)-N-((1R,2S)-1-(cyclopropyl-sulfonylcarbamoyl)-2-vinylcyclopropyl)-4-(7-methoxy-2-phenylquinolin-4-yloxy)pyrrolidine-2-carboxamide], for which the pEC50 was more than 6.00.

In the case of `C=C[C@@H]1C[C@]1(NC(=O)[C@@H]1C[C@@H](NC(=O)n2c3ccccc3c3ccccc32)CN1C(=O)[C@@H](CC(=O)N1CC2CC3CC(C2)CC1C3)C(C)(C)C)C(=O)NS(=O)(=O)C1CC1` [Compound 197], the pEC50 is more than 6.00.

On to `C=C[C@@H]1C[C@]1(NC(=O)[C@@H]1C[C@@H](NC(=O)n2c3ccccc3c3ccccc32)CN1C(=O)[C@@H](CC(=O)N1CC2CCC1C2)C(C)(C)C)C(=O)NS(=O)(=O)C1CC1` (stereo partly drawn) [Compound 198, N-((3R,5S)-1-((2S)-2-(2-(2-aza-bicyclo[2.2.1]heptan-2-yl)-2-oxoethyl)-3,3-dimethylbutanoyl)-5-((1R)-1-(cyclo-propylsulfonyl-carbamoyl)-2-vinylcyclopropyl-carbamoyl)pyrrolidin-3-yl)-9H-carbazole-9-carboxamide], for which the pEC50 was more than 6.00.

For the molecule `C=CC1C[C@]1(NC(=O)[C@@H]1C[C@@H](NC(=O)c2cc(-c3ccccc3)nc3ccccc23)CN1C(=O)[C@@H](CC(=O)N1CCC(C(F)(F)F)CC1)C(C)(C)C)C(=O)NS(=O)(=O)C1CC1` (stereo partly drawn) [Compound 199, N-((3R,5S)-1-((S)-2-tert-butyl-4-oxo-4-(4-(trifluoromethyl)piper-idin-1-yl)butanoyl)-5-((1R,2S)-1-(cyclo-propylsulfonyl-carbamoyl)-2-vinyl-cyclopropyl-carbamoyl)pyrrolidin-3-yl)-2-phenylquinoline-4-carboxamide], the pEC50 is more than 6.00.

As for `C=C[C@@H]1C[C@]1(NC(=O)[C@@H]1C[C@@H](NC(=O)c2cc(-c3ccccc3)nc3ccccc23)CN1C(=O)[C@@H](CC(=O)N1CCC(F)(F)CC1)C(C)(C)C)C(=O)NS(=O)(=O)C1CC1` [Compound 200, N-((3R,5S)-1-((S)-2-tert-butyl-4-(4,4-difluoropiperidin-1-yl)-4-oxobutanoyl)-5-((1R,2S)-1-(cyclopropylsulfonyl-carbamoyl)-2-vinylcyclopropyl-carbamoyl)pyrrolidin-3-yl)-2-phenylquinoline-4-carboxamide], the pEC50 was more than 6.00.

As for `C=C[C@@H]1C[C@]1(NC(=O)[C@@H]1C[C@@H](NC(=O)c2cc(-c3ccccc3)nc3ccccc23)CN1C(=O)[C@@H](CC(=O)N1CCC(F)(F)C1)C(C)(C)C)C(=O)NS(=O)(=O)C1CC1` [Compound 201, N-((3R,5S)-1-((S)-2-tert-butyl-4-(3,3-difluoropyrrolidin-1-yl)-4-oxobutanoyl)-5-((1R,2S)-1-(cyclopropylsulfonyl-carbamoyl)-2-vinylcyclopropyl-carbamoyl)pyrrolidin-3-yl)-2-phenylquinoline-4-carboxamide], the pEC50 is more than 6.00.

With `C=C[C@@H]1C[C@]1(NC(=O)[C@@H]1C[C@@H](NC(=O)c2cc(-c3ccccc3)nc3ccccc23)CN1C(=O)[C@@H](CC(=O)N1CCCC(F)(F)C1)C(C)(C)C)C(=O)NS(=O)(=O)C1CC1` [Compound 202, N-((3R,5S)-1-((S)-2-tert-butyl-4-(3,3-difluoropiperidin-1-yl)-4-oxobutanoyl)-5-((1R,2S)-1-(cyclo-propylsulfonyl-carbamoyl)-2-vinyl-cyclopropyl-carbamoyl)pyrrolidin-3-yl)-2-phenylquinoline-4-carboxamide], the pEC50 was more than 6.00.

`C=C[C@@H]1C[C@]1(NC(=O)[C@@H]1C[C@@H](NC(=O)c2cc(-c3ccccc3)nc3ccccc23)CN1C(=O)[C@@H](CC(=O)N1CCCCCC1)C(C)(C)C)C(=O)NS(=O)(=O)C1CC1` [Compound 203, N-((3R,5S)-1-((S)-4-(azepan-1-yl)-2-tert-butyl-4-oxobutanoyl)-5-((1R,2S)-1-(cyclo-propylsulfonyl-carbamoyl)-2-vinylcyclopropyl-carbamoyl)pyrrolidin-3-yl)-2-phenylquinoline-4-carboxamide]: the pEC50 is more than 6.00.

For the molecule `C=C[C@@H]1C[C@]1(NC(=O)[C@@H]1C[C@@H](NC(=O)c2cc(-c3ccccc3)nc3ccccc23)CN1C(=O)[C@@H](CC(=O)N1CCCC(F)C1)C(C)(C)C)C(=O)NS(=O)(=O)C1CC1` (stereo partly drawn) [Compound 204, N-((3R,5S)-1-((2S)-2-tert-butyl-4-(3-fluoropiperidin-1-yl)-4-oxobutanoyl)-5-((1R,2S)-1-(cyclopropylsulfonyl-carbamoyl)-2-vinyl-cyclopropyl-carbamoyl)pyrrolidin-3-yl)-2-phenylquinoline-4-carboxamide], the pEC50 was more than 6.00.

With `C=C[C@@H]1C[C@]1(NC(=O)[C@@H]1C[C@@H](NC(=O)c2cc(-c3ccccc3)nc3ccccc23)CN1C(=O)[C@@H](CC(=O)N1CCC(F)CC1)C(C)(C)C)C(=O)NS(=O)(=O)C1CC1` [Compound 205, N-((3R,5S)-1-((S)-2-tert-butyl-4-(4-fluoropiperidin-1-yl)-4-oxobutanoyl)-5-((1R,2S)-1-(cyclopropylsulfonyl-carbamoyl)-2-vinyl-cyclopropyl-carbamoyl)pyrrolidin-3-yl)-2-phenylquinoline-4-carboxamide], the pEC50 is more than 6.00.
